The values below come from patent US8716317B2, “Sulfonamides with heterocycle and oxadiazolone headgroup, processes for their preparation and their use as pharmaceuticals” (Sanofi, priority 2008, dated 2014).

The conditions of experiment [1]: two weeks clinical trials in healthy volunteers; cited from earlier work.
The conditions of experiment [2]: rhesus and cynomolgus monkeys; cited from earlier work.
For experiment [3], the target named is T1, human PPARdelta (Homo sapiens, UniProt Q03181).
T1 construct: amino acids S139-Y441; expressed in transfected cells; host or cells: HEK (human embryo kidney) cells, stably transfected with a pcDNA3 construct
T1 sequence (Q03181 139-441): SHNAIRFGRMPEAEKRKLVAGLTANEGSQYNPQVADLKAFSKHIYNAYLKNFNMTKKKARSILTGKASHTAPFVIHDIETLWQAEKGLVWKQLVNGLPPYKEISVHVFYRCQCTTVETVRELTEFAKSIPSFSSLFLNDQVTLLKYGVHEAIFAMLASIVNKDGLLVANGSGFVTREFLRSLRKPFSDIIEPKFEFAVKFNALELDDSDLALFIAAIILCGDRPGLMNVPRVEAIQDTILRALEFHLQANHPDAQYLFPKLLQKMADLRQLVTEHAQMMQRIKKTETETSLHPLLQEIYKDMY
Kind of experiment: Cellular PPARdelta assay (luciferase reporter, stably transfected HEK cell line). In kind it is cell-based. The note with it: GR-GAL4-humanPPARdelta-LBD. How it is done:
(§1) The potency of substances which bind to human PPARdelta and activate it in an agonistic manner is analyzed using a stably transfected HEK cell line (HEK=human embryo kidney) which is referred to here as PPARdelta reporter cell line. In analogy to the assay described for PPARalpha, the PPARdelta reporter cell line also contains two genetic elements, a luciferase reporter element (pdeltaM-GAL4-Luc-Zeo) and a PPARdelta fusion protein (GR-GAL4-humanPPARdelta-LBD) which mediates expression of the luciferase reporter element depending on a PPARdelta ligand. The stably and constitutively expressed fusion protein GR-GAL4-humanPPARdelta-LBD binds in the cell nucleus of the PPARdelta reporter cell line via the GAL4 protein portion to the GAL4 DNA binding motifs 5″-upstream of the luciferase reporter element which is stably integrated in the genome of the cell line. There is only little expression of the luciferase reporter gene in the absence of a PPARdelta ligand if fatty acid-depleted fetal calf serum (cs-FCS) is used in the assay. PPARdelta ligands bind and activate the PPARdelta fusion protein and thereby stimulate expression of the luciferase reporter gene. The luciferase which is formed can be detected by means of chemiluminescence via an appropriate substrate.
The production of the stable PPARdelta reporter cell line is based on a stable HEK-cell clone which was stably transfected with a luciferase reporter element. This step was already described above in the section “construction of the PPARalpha reporter cell line”. […]
The activity of PPARdelta agonists is determined in a 3-day assay in exact analogy to the procedure already described for the PPARalpha reporter cell line except that the PPARdelta reporter cell line and a specific PPARdelta agonist was used as a standard to control test efficacy.
(In general: A reporter such as luciferase makes a cellular process visible.)

For experiment [4], the target named is T2, human PPARalpha (Homo sapiens, UniProt Q07869).
T2 construct: amino acids S167-Y468; expressed in transfected cells; host or cells: HEK (human embryo kidney) cells, stably transfected with a pcDNA3 construct
T2 sequence (Q07869 167-468): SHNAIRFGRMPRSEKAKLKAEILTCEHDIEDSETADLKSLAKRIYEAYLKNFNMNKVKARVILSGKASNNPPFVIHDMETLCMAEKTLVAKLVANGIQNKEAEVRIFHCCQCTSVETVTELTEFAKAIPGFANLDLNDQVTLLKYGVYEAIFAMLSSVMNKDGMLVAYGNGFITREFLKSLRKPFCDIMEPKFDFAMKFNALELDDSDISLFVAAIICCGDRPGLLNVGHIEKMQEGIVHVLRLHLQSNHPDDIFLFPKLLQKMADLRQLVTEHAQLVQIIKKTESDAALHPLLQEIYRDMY
Description: Cellular PPARalpha assay (luciferase reporter, stably transfected HEK cell line). In kind it is cell-based. The note with it: GR-GAL4-humanPPARalpha-LBD. The procedure:
as §1, with “PPARalpha” for “PPARdelta”, “It” for “In analogy to the assay described for PPARalpha, the PPARdelta reporter cell line also”, “(GR-GAL4-humanPPARalpha-LBD)” for “(GR-GAL4-humanPPARdelta-LBD)”, “GR-GAL4-humanPPARalpha-LBD” for “GR-GAL4-humanPPARdelta-LBD”, “weak” for “little”, “stimulate the” for “stimulate”
The PPARalpha reporter cell line was prepared in two stages. […]
The activity of PPARalpha agonists is determined in a 3-day assay which is described below: […]

For experiment [5] the following is noted: diabetic animal model; cited from earlier work.
The conditions of experiment [6]: obese, insulin resistant rhesus monkeys, cited from earlier work.

As a reminder, the EC50 is the midpoint of the concentration-response curve. The low end stands for a more potent agent, the high end for a less potent agent.

Where two headings read alike, the source gives them in different places.

Consider `CCCc1c(OCCCSc2nnc(SCC(=O)O)s2)ccc(C(C)=O)c1O` [YM-16638], for which the plasma lipids result in experiment [1] is given as “acts in a similar manner”; in experiment [2], “significantly lowers plasma lipids”.
Turning to `O=c1[nH]c(-c2ccc(S(=O)(=O)N3CCc4cc(-c5ccc(C(F)(F)F)cc5)ccc43)cn2)no1` [Example 3, 3-{5-[5-(4-Trifluoromethyl-phenyl)-2,3-dihydro-indole-1-sulfonyl]-pyridin-2-yl}-4H-[1,2,4]oxadiazol-5-one], in experiment [3], the EC50 came to 13 nM.
Regarding `O=c1[nH]c(-c2ccc(S(=O)(=O)N3CCc4cc(-c5ccc(C(F)(F)F)cc5)ccc43)nc2)no1` [Example 2, 3-{6-[5-(4-Trifluoromethyl-phenyl)-2,3-dihydro-indole-1-sulfonyl]-pyridin-3-yl}-4H-[1,2,4]oxadiazol-5-one], the half-maximal effective concentration (EC50) in experiment [4] was found to be 6700 nM; in experiment [3], 336 nM.
With `O=c1[nH]c(-c2ccc(S(=O)(=O)N3CCc4cc(-c5ccc(C(F)(F)F)cc5)ccc43)s2)no1` [Example 1, 3-{5-[5-(4-Trifluoromethyl-phenyl)-2,3-dihydro-indole-1-sulfonyl]thiophen-2-yl}-4H-[1,2,4]oxadiazol-5-one], the EC50 was determined as 920 nM in experiment [4] and 21 nM in experiment [3].
With `CCCc1c(OCCCOc2ccc(OCC(=O)O)cc2)ccc(C(C)=O)c1O` [Example L-165041], the plasma cholesterol result in experiment [5] is “raises plasma cholesterol”.
With `Cc1cc(SCc2sc(-c3ccc(C(F)(F)F)cc3)nc2C)ccc1OCC(=O)O` [GW501516], in experiment [6] (plasma), the insulin levels entry is listed as “decreases” and the triglycerides result was “decreases”. In addition, in experiment [6], the HDL-cholesterol result is reported as “raises” and the “plasma LDL-cholesterol” value is recorded as “decreases”.
